Measurements from ChEMBL document CHEMBL1153192, “Macrocyclic BACE-1 inhibitors acutely reduce Abeta in brain after po application” (Bioorg Med Chem Lett, 2010).

Legend:
[1] = system: MDR1; experiment: Apparent permeability from apical to basolateral side of MDCK cells expressing MDR1; assay type: ADME, cell-based, Canis lupus familiaris; conditions: dog
[2] = Dissociation constant, pKa of the compound; assay type: physicochemical
[3] = Drug level in APP50/16 tg mouse brain at 60 umol/kg, po after 4 hrs; assay type: ADME, organism-based; conditions: APP50/16 transgenic, read-out: Drug uptake
[4] = Plasma concentration in APP50/16 tg mouse at 60 umol/kg, po after 4 hrs; assay type: ADME, organism-based; conditions: APP50/16 transgenic

SMILES | Papp A→B [1] [×10⁻⁶ cm/s] | pKa [2] | concentration at 4 h [3] [nM] | concentration at 4 h [4] [nM]
CC(C)c1cccc(C2(NC[C@@H](O)[C@@H]3Cc4cccc(c4)OCCCCOc4cc(cc(N5CCCC5=O)c4)C(=O)N3)CC2)c1 | 0.4 |  |  | 
Cc1cc2cc(n1)OCCCCOc1cccc(c1)C[C@@H]([C@H](O)CNC(C)c1cccc(C(C)C)c1)NC2=O (stereo not given in full) | 1.3 | 8.5 |  | 
Cc1cc2cc(n1)OCCCCOc1cccc(c1)C[C@@H]([C@H](O)CNC1(c3cccc(C(C)C)c3)CC1)NC2=O | 4 |  | 320 | 3000
COCc1cc2cc(c1)C(=O)N[C@H]([C@H](O)CNC1(c3cccc(C(C)(C)C)c3)CCC1)Cc1cccc(c1)OCCCCN2 | 1.2 |  |  | 
CCCS(=O)(=O)N(C)c1cc2cc(c1)C(=O)N[C@H]([C@H](O)CNC1(c3cccc(C(C)C)c3)CC1)Cc1cccc(c1)OCCCCN2 | 0.28 |  |  | 
COCc1cc2cc(c1)C(=O)N[C@H]([C@H](O)CNC1(c3cccc(C(C)(C)C)c3)CCCC1)Cc1cccc(c1)OCCCCN2 | 1.4 |  |  | 
COCc1cc2cc(n1)OCCCCOc1cccc(c1)C[C@@H]([C@H](O)CNC1(c3cccc(C(C)C)c3)CC1)NC2=O | 4.9 |  | 540 | 2200

The next lines start with the values.

Papp A→B [1] [×10⁻⁶ cm/s] | pKa [2] | concentration at 4 h [3] [nM] | concentration at 4 h [4] [nM] | SMILES
5.6 | 3.8 |  |  | COCc1cc2cc(c1)C(=O)N[C@H]([C@H](O)CNC(c1cccc(C(C)(C)C)c1)C(F)(F)F)Cc1cccc(c1)OCCCCN2 (stereo not given in full)
2 |  |  |  | CC(C)c1cccc(CNC[C@@H](O)[C@@H]2Cc3cccc(c3)OCCCCNc3cccc(c3)C(=O)N2)c1
0.95 |  |  |  | CCCS(=O)(=O)N(C)c1cc2cc(c1)C(=O)N[C@H]([C@H](O)CNCc1cccc(C(C)C)c1)Cc1cccc(c1)OCCCCN2
1.3 |  | 40 | 30 | Cc1cc2cc(n1)OCCCCOc1cccc(c1)C[C@@H]([C@H](O)CNCc1cccc(C(C)C)c1)NC2=O
3.1 | 7.3 | 250 | 1200 | COCc1cc2cc(c1)C(=O)N[C@H]([C@H](O)CNC1(c3cccc(C(C)C)c3)CC1)Cc1cccc(c1)OCCCCN2
3.8 | 7.2 |  |  | COCc1cc2cc(c1)C(=O)N[C@H]([C@H](O)CNC(CF)c1cccc(C(C)(C)C)c1)Cc1cccc(c1)OCCCCN2 (stereo not given in full)
0.16 |  |  |  | COCc1cc2cc(c1)C(=O)N[C@H]([C@H](O)CNCc1cccc(C(C)C)c1)Cc1cccc(c1)OCCCCN2
1.3 |  |  |  | COCc1cc2cc(c1)C(=O)N[C@H]([C@H](O)CNC(COC)c1cccc(C(C)(C)C)c1)Cc1cccc(c1)OCCCCN2 (stereo not given in full)
0.11 |  |  |  | CC(C)c1cccc(CNC[C@@H](O)[C@@H]2Cc3cccc(c3)OCCCCNc3cc(cc(N4C=COC4)c3)C(=O)N2)c1
1.8 |  |  |  | COCc1cc2cc(c1)C(=O)N[C@H]([C@H](O)CNC(C)(C)c1cccc(C(C)C)c1)Cc1cccc(c1)OCCCCN2
0.17 |  |  |  | Cc1cc2cc(n1)NCCCCOc1cccc(c1)C[C@@H]([C@H](O)CNCc1cccc(C(C)C)c1)NC2=O
